According to patent US20230142274A1 (SIMCERE PHARMACEUTICAL CO., LTD., priority 2020, published 2023):
Where two headings read alike, the source gives them in different places.

What was measured:
Daudi cells = assay: Inhibition of human Daudi lymphoma cell proliferation (Cell-Titer Glo); format: cell-based; conditions: 3 days incubation, read-out: Anti-Proliferative Activity Against Daudi cells IC50
In short: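 Daudi cells in RPMI 1640 with 10% FBS were seeded and grown 24 h, then exposed for 3 days (37 °C, 5% CO2) to 10-point 3-fold serial dilutions at 0.25% final DMSO. Viability was read by CellTiter-Glo ATP luminescence, and IC50 was fitted from % inhibition against top/bottom controls.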

[1] = Metabolic stability in liver microsomes (CD-1 mouse); format: in vitro ADME; conditions: CD-1 mouse liver microsomes 0.5 mg/mL, compound 1 μM, NADPH 1 mM, 37° C.; for half-life at 1 μM: pH 7.4
Protocol: (§1) 1. Source of liver microsomes: human liver microsomes (Corning 452117), CD-1 mouse liver microsomes (XENOTECH M1000)
(§2) 1. Formulation of 100 mM phosphate buffer solution (PBS): 7.098 g of Na2HPO4 was weighed and ultrasonically dissolved in 500 mL of pure water to form Solution A. 3.400 g of KH2PO4 was weighed and ultrasonically dissolved in 250 mL of pure water to form Solution B. Solution A was placed in a stirrer and Solution B was slowly added until the pH value reached 7.4, thus formulating 100 mM PBS buffer solution.
(§3) The reaction system was formulated according to Table 3 below.
(§4) 3. The reaction system was placed in a water bath at 37° C. and pre-incubated for 10 minutes. 40 μL of 10 mM NADPH solution (NADPH was dissolved in 100 mM phosphate buffer solution) was added into the reaction system, and the final concentration of NADPH was 1 mM. 40 μL of Phosphate buffer solution was used instead of the NADPH solution as a negative control. The negative control was used to rule out the influence caused by the chemical stability of the compounds per se.
(§5) 4. The reaction system was added with 4 μL of 100 μM the compound of the present disclosure and Verapamil (the positive control compound) (DMSO as the vehicle), so that the reaction was initiated. The final concentration of the compound was 1 μM.
(§6) 5. At 0.5, 15, 30, 45 and 60 minutes, after being well mixed in a vortex oscillator, 50 μL of the incubated samples were taken out respectively, and the reaction was terminated with ice acetonitrile (4-fold) containing an internal standard. The samples were centrifuged at 3220 g for 45 minutes. After the centrifugation, 90 μL of the supernatants were transferred to a sample plate and mixed well with 90 μL of ultrapure water for LC-MS/MS analysis.
(§7) All data were calculated by Microsoft Excel software. Peak areas were determined from the extracted ion chromatograms. The in-vitro half-life (t1/2) of the parent drug was determined by the linear fitting of the natural logarithm of the elimination percentage of the parent drug versus time.
(§8) The in-vitro half-life (t1/2) was calculated from the slope: […]

[2] = Metabolic stability in liver microsomes (human); format: in vitro ADME; conditions: Human being liver microsomes 0.5 mg/mL, compound 1 μM, NADPH 1 mM, 37° C.; for half-life at 1 μM: pH 7.4
Protocol: as §1, §2, §3, §4, §5, §6, §7, §8

WI-38 cells = assay: Inhibition of human WI-38 embryonic lung cell proliferation (Cell-Titer Glo); format: cell-based; conditions: Homo sapiens, 72 h, 3 days incubation, read-out: Anti-Proliferative Activity Against WI-38 cells IC50
In short: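 WI-38 cells in EMEM with 10% FBS, seeded 24 h, then exposed to 10-point 3-fold compound dilutions (0.25% DMSO final) for 3 days at 37 °C, 5% CO2. Viability from intracellular ATP by Cell-Titer Glo luminescence; % inhibition normalised to top/bottom signals and IC50 fitted.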

SMILES | IC50 (Daudi cells) | t1/2 [1] | t1/2 [2] | IC50 (Daudi cells; Homo sapiens, 72 h) | half-life at 1 μM [1] | IC50 (WI-38 cells) | half-life at 1 μM [2]
COc1ccc(-c2ccc(-c3cnc([C@H]4CC[C@H](NC(=O)OC(C)C)CC4)s3)c([S@@](=N)(=O)C3CC3)c2)cn1 (stereo in doubt) [Example 94] | 20 nM | 3.4 h | 3.85 h |  |  |  | 
CC(C)OC(=O)Nc1ccc(-c2cnc([C@H]3CC[C@H](NC(=O)OC(C)C)CC3)s2)c(P(C)(C)=O)c1 [Example 1, isopropyl trans-N-[3-dimethylphosphoryl-4-[2-[4-(isopropoxycarbonylamino)cyclohexyl]thiazol-5-yl]phenyl]carbamate] |  |  |  | 1620 nM | > 8.33 h | > 25000 nM | > 8.33 h
CC(C)OC(=O)Nc1ccc(-c2cnc([C@H]3CC[C@H](NC(=O)OC(C)C)CC3)s2)c(S(=O)(=O)C(C)C)c1 [Example 2, isopropyl trans-N-[4-[2-[4-(isopropoxycarbonylamino)cyclohexyl]thiazol-5-yl]-3-isopropylsulfonyl-phenyl]carbamate] |  |  |  | 390 nM | 4.27 h | > 25000 nM | 2.42 h
CC(C)OC(=O)Nc1ccc(-c2cnc(C3CCC(NC(=O)OC(C)C)CC3)s2)c(S(=N)(=O)C(C)C)c1 (stereo not drawn) [Example 3, isopropyl trans-N-[4-[2-[4-(isopropoxycarbonylamino)cyclohexyl]thiazol-5-yl]-3-(isopropylsulfonimidoyl)phenyl]carbamate] |  |  |  | 1080 nM | > 8.33 h | > 25000 nM | 7.95 h
CC(C)OC(=O)Nc1ccc(-c2cnc(C3CCC(NC(=O)OC(C)C)CC3)s2)c([S+]([O-])C(C)C)c1 (stereo not drawn) [Example 32, isopropyl trans-N-[4-[2-[4-(isopropoxycarbonylamino)cyclohexyl]thiazol-5-yl]-3-isopropylsulfinyl-phenyl]carbamate] |  |  |  | 420 nM | 2.7 h | 23000 nM | 4.18 h
CC(C)OC(=O)Nc1ccc(-c2cnc([C@H]3CC[C@H](NC(=O)OC(C)C)CC3)s2)c(S(=O)(=O)C2CC2)c1 [Example 33, isopropyl trans-N-[3-cyclopropylsulfonyl-4-[2-[4-(isopropoxycarbonylamino)cyclohexyl]thiazol-5-yl]phenyl]carbamate] |  |  |  | 100 nM | 4.13 h | > 25000 nM | > 8.33 h
Cc1cc(Nc2ccc(-c3cnc([C@H]4CC[C@H](NC(=O)OC(C)C)CC4)s3)c(P3(=O)CCCC3)c2)n[nH]1 [Example 47, isopropyl trans-N-[4-[5-[4-[(5-methyl-1H-pyrazol-3-yl)amino]-2-(1-oxidophospholan-1-yl)phenyl]thiazol-2-yl]cyclohexyl]carbamate] |  |  |  | 30 nM | 7.28 h | > 25000 nM | 5.05 h
Cc1cc(Nc2ccc(-c3cnc([C@H]4CC[C@H](NC(=O)OC(C)C)CC4)s3)c(S(=O)(=O)C3CC3)c2)n[nH]1 [Example 48, isopropyl trans-(4-(5-(2-(cyclopropylsulfonyl)-4-((5-methyl-1H-pyrazol-3-yl)amino)phenyl)thiazol-2-yl)cyclohexyl)carbamate] |  |  |  | 6 nM | 7.2 h | 15600 nM | > 8.33 h
Cc1cc(Nc2ccc(-c3cnc([C@H]4CC[C@H](NC(=O)OC(C)C)CC4)s3)c(S(=O)(=O)C3CC3)c2)nn1C [Example 49, isopropyl trans-(4-(5-(2-(cyclopropylsulfonyl)-4-((1,5-dimethyl-1H-pyrazol-3-yl)amino)phenyl)thiazol-2-yl)cyclohexyl)carbamate] |  |  |  | 6 nM | 2.08 h | > 25000 nM | 0.933 h
Cc1cc(Nc2ccc(-c3cnc(C4CCC(NC(=O)OC(C)C)CC4)s3)c(S(=N)(=O)C3CC3)c2)n[nH]1 (stereo not drawn) [Example 50, isopropyl trans-N-[4-[5-[2-(cyclopropylsulfonimidoyl)-4-]((5-methyl-1H-pyrazol-3-yl)amino]phenyl]thiazol-2-yl]cyclohexyl]carbamate] |  |  |  | 26 nM | 6.27 h | > 25000 nM | 7.92 h
CC(C)OC(=O)N[C@H]1CC[C@H](c2ncc(-c3ccc(Nc4cn(C)nn4)cc3S(=N)(=O)C3CC3)s2)CC1 (stereo partly drawn) [Example 54] |  |  |  | 55 nM | > 8.33 h | > 25000 nM | > 8.33 h
CC(C)OC(=O)N[C@H]1CC[C@H](c2ncc(-c3ccc(Nc4n[nH]c5ccccc45)cc3S(=O)(=O)C3CC3)s2)CC1 [Example 56, isopropyl trans-(4-(5-(4-((1H-indazol-3-yl)amino)-2-(cyclopropylsulfonyl)phenyl)thiazol-2-yl)cyclohexyl)carbamate] |  |  |  | 7 nM | 1.82 h | > 25000 nM | 2.98 h
CC(C)OC(=O)N[C@H]1CC[C@H](c2ncc(-c3ccc(Nc4cc5ccccn5n4)cc3S(=O)(=O)C3CC3)s2)CC1 [Example 57, isopropyl trans-(4-(5-(2-(cyclopropylsulfonyl)-4-(pyrazolo[1,5-a]pyridin-2-ylamino)phenyl)thiazol-2-yl)cyclohexyl)carbamate] |  |  |  | 7 nM | 2.1 h | > 25000 nM | 0.933 h
CC(C)OC(=O)N[C@H]1CC[C@H](c2ncc(-c3ccc(NC(=O)NCc4ccccc4)cc3S(=N)(=O)C3CC3)s2)CC1 (stereo partly drawn) [Example 65, isopropyl trans-(4-(5-(4-(3-benzylureido)-2-(cyclopropanesulfonimidoyl)phenyl)thiazol-2-yl)cyclohexyl)carbamate] |  |  |  | 37 nM | 1.33 h | > 25000 nM | 1.85 h
CC(C)OC(=O)Nc1ccc(-c2cnc([C@H]3CC[C@H](NC(=O)OC(C)C)CC3)s2)c(S(=N)(=O)C2CC2)c1 (stereo partly drawn) [Example 68, isopropyl trans-N-[3-(cyclopropylsulfonimidoyl)-4-[2-[4-(isopropoxycarbonylamino)cyclohexyl]thiazol-5-yl]phenyl]carbamate] |  |  |  | 100 nM | 2.82 h | > 25000 nM | 3.12 h
CC(C)OC(=O)NC1CCC(c2ncc(-c3ccc(Nc4ccc(F)cn4)cc3S(=N)(=O)C3CC3)s2)CC1 (stereo not drawn) [Example 81, isopropyl trans-N-[4-[5-[2-(cyclopropylsulfonimidoyl)]-4-[(5-fluoro-2-pyridyl)amino]phenyl]thiazol-2-yl]cyclohexyl]carbamate] |  |  |  | 40 nM | 3.5 h | 14000 nM | 5.32 h
Cc1cc(Nc2ccc(-c3cnc([C@H]4CC[C@H](NC(=O)OC(C)C)CC4)s3)c(S(=O)(=O)C3COC3)c2)n[nH]1 [Example 92, isopropyl trans-N-[4-[5-[4-[(5-methyl-1H-pyrazol-3-yl)amino]-2-(oxetan-3-ylsulfonyl)phenyl]thiazol-2-yl]cyclohexyl]carbamate] |  |  |  | 4 nM | 5.77 h | 19500 nM | 6.37 h
Cc1cc(Nc2ccc(-c3cnc([C@H]4CC[C@H](NC(=O)OC(C)C)CC4)s3)c(S(=N)(=O)C3CC3)c2)n(C)n1 (stereo partly drawn) [Example 98, isopropyl trans-(4-(5-(2-(cyclopropanesulfonimidoyl)-4-((1,3-dimethyl-1H-pyrazol-5-yl)amino)phenyl)thiazol-2-yl)cyclohexyl)carbamate] |  |  |  | 32 nM | > 8.33 h | > 25000 nM | 2.28 h
Cc1cc(Nc2ccc(-c3cnc([C@H]4CC[C@H](NC(=O)OC(C)C)CC4)s3)c(P3(=O)CCC3)c2)n[nH]1 [Example 103, isopropyl trans-(4-(5-(4-((5-methyl-1H-pyrazol-3-yl)amino)-2-(1-oxophosphetan-1-yl)phenyl)thiazol-2-yl)cyclohexyl)carbamate] |  |  |  | 47 nM | > 8.33 h | > 25000 nM | > 8.33 h
